{"source": "ChEMBL document CHEMBL5236608", "about": "“Discovery and Optimization of Potent and Orally Available CTP Synthetase Inhibitors for Use in Treatment of Diseases Driven by Aberrant Immune Cell Proliferation” (J Med Chem, 2022)", "key": {"[1]": {"test": "in vivo", "conditions": "CD-1, mouse, po, 10 mg/kg"}, "[2]": {"test": "in vitro", "conditions": "mouse, hepatocytes"}, "[3]": {"test": "in vivo", "conditions": "CD-1, mouse, po, 10 mg/kg", "remark": "listed apart in the source"}, "[4]": {"test": "in vivo", "conditions": "CD-1, mouse, po, 10 mg/kg", "remark": "listed apart in the source"}, "[5]": {"test": "in vitro", "conditions": "human, Caco-2"}, "[6]": {"test": "Cmax in collagen-induced arthritis mouse at 10 mg/kg, po measured at day 2", "assay_type": "ADME, organism-based", "set-up": "dose 10 mg/kg, time 2 day, route po", "conditions": "in vivo"}, "[7]": {"test": "Dose normalized AUC(0 to t) in collagen-induced arthritis mouse at 10 mg/kg, po measured at day 9", "assay_type": "ADME, organism-based", "conditions": "in vivo, 216 h, time 9 day"}, "[8]": {"test": "Dose normalized AUC(0 to t) in collagen-induced arthritis mouse at 10 mg/kg, po measured at day 19", "assay_type": "ADME, organism-based", "conditions": "in vivo, 456 h, time 19 day"}, "[9]": {"test": "Cmax in collagen-induced arthritis mouse at 50 mg/kg, po measured at day 19", "assay_type": "ADME, organism-based", "set-up": "dose 50 mg/kg, time 19 day, route po", "conditions": "in vivo"}, "[10]": {"test": "Cmax in collagen-induced arthritis mouse at 50 mg/kg, po measured at day 9", "assay_type": "ADME, organism-based", "set-up": "dose 50 mg/kg, time 9 day, route po", "conditions": "in vivo"}, "[11]": {"test": "Cmax in collagen-induced arthritis mouse at 10 mg/kg, po measured at day 9", "assay_type": "ADME, organism-based", "set-up": "time 9 day, dose 10 mg/kg, route po", "conditions": "in vivo"}, "[12]": {"test": "AUC(0 to t) in collagen-induced arthritis mouse at 10 mg/kg, po measured at day 2", "assay_type": "ADME, organism-based", "set-up": "time 2 day, dose 10 mg/kg, route po", "conditions": "in vivo"}, "[13]": {"test": "Cmax in collagen-induced arthritis mouse at 10 mg/kg, po measured at day 19", "assay_type": "ADME, organism-based", "set-up": "dose 10 mg/kg, time 19 day, route po", "conditions": "in vivo"}, "[14]": {"test": "Dose normalized AUC(0 to t) in collagen-induced arthritis mouse at 10 mg/kg, po measured at day 2", "assay_type": "ADME, organism-based", "conditions": "in vivo, 48 h, time 2 day"}, "[15]": {"test": "AUC(0 to t) in collagen-induced arthritis mouse at 10 mg/kg, po measured at day 9", "assay_type": "ADME, organism-based", "set-up": "time 9 day, dose 10 mg/kg, route po", "conditions": "in vivo"}, "[16]": {"test": "Lipophilicity, logD of the compound at pH 7.4", "assay_type": "physicochemical", "conditions": "buffer"}, "[17]": {"test": "physchem"}, "[18]": {"test": "AUC(0 to t) in collagen-induced arthritis mouse at 50 mg/kg, po measured at day 2", "assay_type": "ADME, organism-based", "set-up": "dose 50 mg/kg, time 2 day, route po", "conditions": "in vivo"}, "[19]": {"test": "AUC(0 to t) in collagen-induced arthritis mouse at 50 mg/kg, po measured at day 19", "assay_type": "ADME, organism-based", "set-up": "dose 50 mg/kg, time 19 day, route po", "conditions": "in vivo"}, "[20]": {"test": "AUC(0 to t) in collagen-induced arthritis mouse at 50 mg/kg, po measured at day 9", "assay_type": "ADME, organism-based", "set-up": "time 9 day, dose 50 mg/kg, route po", "conditions": "in vivo"}, "[21]": {"test": "Cmax in collagen-induced arthritis mouse at 50 mg/kg, po measured at day 2", "assay_type": "ADME, organism-based", "set-up": "dose 50 mg/kg, time 2 day, route po", "conditions": "in vivo"}, "[22]": {"test": "AUC(0 to t) in collagen-induced arthritis mouse at 10 mg/kg, po measured at day 19", "assay_type": "ADME, organism-based", "set-up": "dose 10 mg/kg, time 19 day, route po", "conditions": "in vivo"}, "[23]": {"test": "Dose normalized AUC(0 to t) in collagen-induced arthritis mouse at 50 mg/kg, po measured at day 9", "assay_type": "ADME, organism-based", "conditions": "in vivo, 216 h, time 9 day"}, "[24]": {"test": "Dose normalized AUC(0 to t) in collagen-induced arthritis mouse at 50 mg/kg, po measured at day 2", "assay_type": "ADME, organism-based", "conditions": "in vivo, 48 h, time 2 day"}, "[25]": {"test": "Dose normalized AUC(0 to t) in collagen-induced arthritis mouse at 50 mg/kg, po measured at day 19", "assay_type": "ADME, organism-based", "conditions": "in vivo, 456 h, time 19 day"}}, "data": [{"smiles": "CC(C)(C(=O)Nc1ccc(-c2cncc(C(F)(F)F)n2)cc1F)c1csc(NS(=O)(=O)C2CC2)n1", "values": [{"measurement": "Cmax", "setting": "[1]", "value": 11.1, "unit": "µM"}, {"measurement": "hepatocyte CLint at 1 h, 1 µM", "setting": "[2]", "value": "< 1", "unit": "µL/min/1e6 cells"}, {"measurement": "bioavailability", "setting": "[3]", "value": 95, "unit": "%"}, {"measurement": "AUC(0-t)", "setting": "[4]", "value": 56.1, "unit": "µM·h"}, {"measurement": "Papp A→B at 2 h, 10 µM", "setting": "[5]", "value": 9.9, "unit": "×10⁻⁶ cm/s"}]}, {"smiles": "CC(C)(C(=O)Nc1ccc(-c2cncc(C(F)(F)F)n2)cn1)c1csc(NS(=O)(=O)C2CC2)n1", "values": [{"measurement": "Cmax", "setting": "[6]", "value": 4770, "unit": "ng/mL"}, {"measurement": "Cmax", "setting": "[1]", "value": 5.3, "unit": "µM"}, {"measurement": "hepatocyte CLint at 1 h, 1 µM", "setting": "[2]", "value": 8, "unit": "µL/min/1e6 cells"}, {"measurement": "AUCt/dose", "setting": "[7]", "value": 1188, "unit": "ng·h/mL"}, {"measurement": "AUCt/dose", "setting": "[8]", "value": 1049, "unit": "ng·h/mL"}, {"measurement": "Cmax", "setting": "[9]", "value": 13000, "unit": "ng/mL"}, {"measurement": "Cmax", "setting": "[10]", "value": 6390, "unit": "ng/mL"}, {"measurement": "AUC(0-t)", "setting": "[4]", "value": 25.3, "unit": "µM·h"}, {"measurement": "Papp A→B at 2 h, 10 µM", "setting": "[5]", "value": 7.1, "unit": "×10⁻⁶ cm/s"}, {"measurement": "Cmax", "setting": "[11]", "value": 3360, "unit": "ng/mL"}, {"measurement": "AUC(0-t) at 48 h", "setting": "[12]", "value": 15000, "unit": "ng·h/mL"}, {"measurement": "Cmax", "setting": "[13]", "value": 3570, "unit": "ng/mL"}, {"measurement": "AUCt/dose", "setting": "[14]", "value": 1503, "unit": "ng·h/mL"}, {"measurement": "AUC(0-t) at 216 h", "setting": "[15]", "value": 11900, "unit": "ng·h/mL"}, {"measurement": "logD", "setting": "[16]", "value": 2.46}, {"measurement": "pKa", "setting": "[17]", "value": 6.26}, {"measurement": "AUC(0-t) at 48 h", "setting": "[18]", "value": 43700, "unit": "ng·h/mL"}, {"measurement": "AUC(0-t) at 456 h", "setting": "[19]", "value": 52600, "unit": "ng·h/mL"}, {"measurement": "AUC(0-t) at 216 h", "setting": "[20]", "value": 29400, "unit": "ng·h/mL"}, {"measurement": "Cmax", "setting": "[21]", "value": 7830, "unit": "ng/mL"}, {"measurement": "AUC(0-t) at 456 h", "setting": "[22]", "value": 10500, "unit": "ng·h/mL"}, {"measurement": "AUCt/dose", "setting": "[23]", "value": 587, "unit": "ng·h/mL"}, {"measurement": "AUCt/dose", "setting": "[24]", "value": 873, "unit": "ng·h/mL"}, {"measurement": "AUCt/dose", "setting": "[25]", "value": 1052, "unit": "ng·h/mL"}]}, {"smiles": "CS(=O)(=O)Nc1nc(CC(=O)Nc2cccc(Cl)c2)cs1", "values": [{"measurement": "pKa", "setting": "[17]", "value": 6.58}]}, {"smiles": "CCCOc1ccc(NC(=O)C(C)(C)c2csc(NS(=O)(=O)C3CC3)n2)cc1", "values": [{"measurement": "Cmax", "setting": "[1]", "value": 0.9, "unit": "µM"}, {"measurement": "hepatocyte CLint at 1 h, 1 µM", "setting": "[2]", "value": 32, "unit": "µL/min/1e6 cells"}, {"measurement": "bioavailability", "setting": "[3]", "value": 35, "unit": "%"}, {"measurement": "AUC(0-t)", "setting": "[4]", "value": 2.34, "unit": "µM·h"}]}]}
